From patent US8378115B2, “Monomethine dyes” (Thermo Fisher Scientific (Milwaukee) LLC, priority 2007, dated 2013)

Assays:
λDNA = assay: Fluorescence enhancement of dye with λDNA; format: binding; conditions: for Fluorescence relative to TO / Fluorescence λ DNA/ssDNA: 0.8 μM dye, 3.2 μM DNA, one minute; for Ratio λ DNA/ss: fluorescence λ DNA vs ss-DNA; for Relative Fluorescent Intensity: λ DNA, TO = 1.0
Protocol: (§1) Stock solutions (8 mM) of each dye were prepared by dissolving each compound in dimethylsulfoxide (DMSO). Stock dye solutions were diluted to a desired concentration in tris-EDTA (TE) buffer (10 mM Tris, 1 mM EDTA, pH 8.0) immediately prior to use.
(§2) Stock solutions of λDNA and 40mer synthetic oligonucleotides (dsDNA and ssDNA), each at a concentration of 40 μM, were prepared in TE buffer. All DNA concentrations described are in base pairs of nucleotides. The DNA stock solutions were diluted to a desired concentration in TE buffer before being mixed with diluted dye solutions.
(§3) Fluorescence enhancement measurements of each dye were obtained by incubating dyes with λDNA, 40mer dsDNA, or 40mer ssDNA at a final concentration of 0.8 μM dye and 3.2 μM DNA for one minute. Fluorescence scans of the samples were performed with excitation wavelengths corresponding to the absorption maxima of the dyes. The resulting fluorescence intensities were compared to fluorescence intensities of Thiazole Orange (TO) and a compound equivalent to SYBR Green without the side chain (V02-06101), shown below,
(§4) [drawing 15] binding to λDNA, 40mer dsDNA, or 40mer ssDNA at a final concentration of 0.8 μM TO and 3.2 μM DNA for one minute, the same as for the tested dyes. The discrimination ratio between dsDNA and ssDNA was calculated by comparing the fluorescence intensities.

[1] = Absorption spectra of dye alone; format: physicochemical; conditions: for ε: in M-1·cm-1 (unit assumed)
Protocol: as §1
[…] […] Optical densities were determined at the absorbance maxima and the extinction coefficients were calculated using Beer's law.

40mer dsDNA = assay: Fluorescence enhancement of dye with 40mer dsDNA; format: binding; conditions: for Relative Fluorescent Intensity: 40-mer ds-DNA, TO = 1.0; for Ratio ds/ss: fluorescence 40-mer ds-DNA vs ss-DNA
Protocol: as §1, §2, §3, §4

[2] = test system: 110 bp and 925 bp fragments from human β-actin gene, 309 bp fragment from human Survivin gene, 413 bp fragment from human integrin α5 gene; assay: qRT-PCR detection of longer PCR amplicons; format: biochemical; conditions: 20 ng to 60 ng dye; 110, 309, 413, 925 bp amplicons
Protocol: Compound V02-07027 was also used to detect the formation of longer PCR amplicons using qRT-PCR: The following by fragments were used: 110 bp and 925 bp fragments from human β-actin gene, a 309 bp fragment from human Survivin gene, and a 413 bp fragment from human integrin α5 gene. Real time PCR was performed on a Stratagene® MX3000 (Stratagene, La Jolla Calif.) instrument using an excitation wavelength of 492 nm and an emission wavelength of 516 nm. Each amplification reaction (25 μl) contained 10 ng or 100 ng of human Genomic DNA, 200 μM of each dNTP, 1.5 mM MgCl2, 50 mM KCL, 10 mM Tris-HCl, 400 nM of each of forward and reverse primers, and 2.5 units of Taq DNA polymerase (Thermo Fisher Scientific (Milwaukee Wis.)). Varying amounts of V02-07027 or a dye such as SYBR® Green (Invitrogen) were added to the reaction mix. Reactions were performed in triplicate and the data points represented the average signal.

rRNA = assay: Fluorescence of dye with rRNA; format: binding; conditions: for Ratio rRNA/ds: fluorescence rRNA vs 40-mer ds-DNA; for Ratio rRNA/ss: fluorescence rRNA vs 40-mer ss-DNA
RNA = assay: Low range RNA quantification by fluorescence; format: binding; conditions: low range RNA assay
Protocol: Detecting and quantifying small amounts of RNA is important in many determinations such as quantitating in vitro transcription yields and quantitating RNA concentration before performing RNA containing assays. RNA is typically quantitated by determining absorbance at 260 nm (λ260), but disadvantages include protein interference, DNA absorbance, and the need for high concentration of RNA (>4 μg/ml). More sensitive fluorescence methods must be used to quantitate small amounts of RNA. A widely used RNA quantitation dye is RiboGreen® (Invitrogen), where 1 ng/ml of RNA can be detected and quantitated with a standard fluorometer, fluorescence microplate reader, or filter fluorometer.
In one embodiment, the V11-03001 compound may be used to quantitate RNA.

SMILES | λex ([1]; Ethanol) | ε ([1]; Ethanol) | λex ([1]; TE Buffer, 8 μM dye) | ε ([1]; TE Buffer, 8 μM dye) | Fluorescence relative to TO (λDNA) | Fluorescence λ DNA/ssDNA (λDNA) | Relative Fluorescent Intensity (40mer dsDNA) | Ratio ds/ss (40mer dsDNA) | Ratio λ DNA/ss (λDNA) | Relative Fluorescent Intensity (λDNA) | binding to amplified DNA fragments [2] | Ratio rRNA/ds (rRNA) | Ratio rRNA/ss (rRNA) | fluorescence enhancement among all the dyes studied (λDNA; comparable to SYBR Green dye) | fluorescence enhancement when bound with RNA (rRNA) | fluorescence intensities versus RiboGreen (RNA) | relationship between fluorescence intensity and total RNA concentration (RNA; FIG. 10)
C[n+]1c(/C=C2\C=CN(c3ccccc3)c3ccccc32)sc2ccccc21 [Dye V02-06101, reference compound] | – | – | – | – | 0.8 | 4.1 | – | – | – | – | – | – | – | – | – | – | –
CCN1C(=Cc2cc(-c3ccccc3)[o+]c3cc(OC)ccc23)Oc2ccccc21 [Dye V02-06135] | 464 nm | 43,000 | – | – | None | None | – | – | – | – | – | – | – | – | – | – | –
CCN(CC)c1ccc2c(C=C3Oc4ccccc4N3CC)cc(C(C)(C)C)[o+]c2c1 [Dye V02-06136] | 499 nm | 72,000 | 492 nm | 35,925 | 0.17 | 1 | 0.3 | 1.8 | 1 | 0.17 | – | – | – | – | – | – | –
CCN(CC)c1ccc2c(/C=C3\Sc4ccccc4N3CC)cc(-c3ccccc3)[o+]c2c1 [Dye V02-06187] | 550 nm | 55,000 | 524 nm | 19,668 | 0.7 | 6.7 | 0.5 | 2.1 | 5.2 | 0.7 | – | – | – | – | – | – | –
CCN(CC)c1ccc2c(/C=C3\Sc4ccccc4N3C)cc(N(C)CCCN(C)C)[o+]c2c1 [Dye V02-07027] | 477 nm | 60,000 | 475 nm | 39,987 | 3.6 | 2.8 | 5.3 | 2.6 | 2.8 | 3.6 | bound to amplified DNA fragments, generating a fluorescent signal | – | – | – | – | – | –
CCN(CC)c1ccc2c(N(C)CCCN(C)C)cc(/C=C3\Sc4ccccc4N3C)[o+]c2c1 [Dye V02-07108] | 498 nm | 46,000 | 496 nm | 27,418 | 3.1 | 1.8 | 3.5 | 1.4 | 1.9 | 3.1 | – | 0.8 | 1.1 | – | – | – | –
CCN(CC)c1ccc2c(/C=C3\Sc4ccccc4N3C)cc(N(C)CCC[N+](C)(C)C)[o+]c2c1 [Dye V11-02190] | 481 nm | 25,600 | 477 nm | 16,940 | – | – | 1.7 | 1.9 | 3.1 | 1.9 | – | 0.7 | 1.4 | – | – | – | –
CCN1c2cc3[o+]c(N(C)CCCN(C)C)cc(/C=C4\Sc5ccccc5N4C)c3cc2C(C)=CC1(C)C [Dye V12-02144] | 492 nm | 49,000 | 484 nm | 28,355 | 3.6 | 2.8 | 2.7 | 2.1 | 2.0 | 1.7 | – | 0.7 | 1.5 | – | – | – | –
CCCN(CCCN(C)C)C1=C/C(=C\c2sc3ccccc3[n+]2C)c2ccccc2N1c1ccccc1 [SYBR Green, reference compound] | – | – | 494 nm | 73,000 | 10.6 | 8.3 | 15.0 | 7.5 | 8.3 | 10.6 | – | 0.3 | 1.0 | – | – | – | –
CN1C(=Cc2cc[n+](C)c3ccccc23)Sc2ccccc21 [TO, Thiazole Orange, reference compound] | 501 nm | 77,000 | 501 nm | 52,773 | 1 | 3.3 | 1.0 | 3.5 | 5.6 | 1.0 | – | 0.8 | 2.3 | – | – | – | –

More lines, main results first:

λex ([1]; Ethanol) | ε ([1]; Ethanol) | λex ([1]; TE Buffer, 8 μM dye) | ε ([1]; TE Buffer, 8 μM dye) | SMILES | Fluorescence relative to TO (λDNA) | Fluorescence λ DNA/ssDNA (λDNA) | Relative Fluorescent Intensity (40mer dsDNA) | Ratio ds/ss (40mer dsDNA) | Ratio λ DNA/ss (λDNA) | Relative Fluorescent Intensity (λDNA) | binding to amplified DNA fragments [2] | Ratio rRNA/ds (rRNA) | Ratio rRNA/ss (rRNA) | fluorescence enhancement among all the dyes studied (λDNA; comparable to SYBR Green dye) | fluorescence enhancement when bound with RNA (rRNA) | fluorescence intensities versus RiboGreen (RNA) | relationship between fluorescence intensity and total RNA concentration (RNA; FIG. 10)
530 nm | 85,000 | 515 nm | 46,625 | CCN(CC)c1ccc2c(C=C3Sc4ccccc4N3CC)cc(C(C)(C)C)[o+]c2c1 [Dye V02-06124] | 0.5 | 1.6 | 0.3 | 1.2 | 1.6 | 0.5 | – | – | – | – | – | – | –
488 nm | 43,000 | 480 nm | 18,850 | CCN1C(=Cc2cc(-c3ccccc3)[o+]c3cc(OC)ccc23)Sc2ccccc21 [Dye V02-06132] | None | None | – | – | – | – | – | – | – | – | – | – | –
522 nm | 50,000 | 515 nm | 37,365 | CCN(CCCN(C)C)c1ccc2c(/C=C3\Sc4ccccc4N3CC)cc(C(C)(C)C)[o+]c2c1 [Dye V02-07015] | 4.0 | 3.7 | 4.0 | 2.3 | 3.7 | 4.0 | – | – | – | – | – | – | –
490 nm | 95,000 | 487 nm | 65,269 | CCN(CC)c1ccc2c(/C=C3\Sc4ccccc4N3C)cc(N3CC[N+](C)(CCO)CC3)[o+]c2c1 [Dye V11-03001] | – | – | 11.1 | 1.7 | 1.8 | 8.7 | – | 0.6 | 1.0 | strongest fluorescence enhancement | significant fluorescence enhancement | comparable to those using RiboGreen® | linear relationship
585 nm | 48,000 | 543 nm | 25,013 | CCN(CC)c1ccc2c(c1)O/C(=C\c1cc(N(C)CCCN(C)C)[o+]c3cc(N(CC)CC)ccc13)C=C2C [Dye V13-01026] | 0.9 | 1.4 | 1.0 | 0.7 | 1.4 | 0.9 | – | – | – | – | – | – | –
480 nm | 83,000 | 455 nm | 40,321 | CCN(CC)c1ccc2c(/C=C3\Sc4ccccc4N3C)cc(N3CCN(CCO)CC3)[o+]c2c1 [Dye V13-01184] | 5.3 | 6.1 | 6.1 | 1.4 | 2.0 | 5.3 | – | 1.0 | 1.4 | – | significant fluorescence enhancement | – | –
